From patent publication US20090053722A1, “SDAD ASSAY AND USES THEREOF” (priority 2007, published 2009)
Where “and” joins values, the source holds several entries; their conditions need not be identical. Identical values can stand only once. Entries after “also recorded” stand apart in the source; their conditions may differ. Like-named read-outs stand apart in the source and are kept apart here.

Legend:
sperm = conditions: comet assay; cited from earlier work
human sperm [1] = system: human sperm
Method: Thymidine incorporation into sperm was scored as follows: unlabeled (less than 5 black granules), medium label (from 5 to 25 black granules), and heavy label (more than 25 black granules). Each value is the mean±SD. […] (5a and 5b) ^3H-TTP incorporation after a 5 min incubation in the egg extract.
(§1) In a micro-centrifuge tube, the reaction mix was prepared; 8 μl of sperm suspension (200,000 sperm) was added to 100 μLof frog egg extract that contained 8 μl of ^3H-TTP (8 μCi). At 5 and 15 min, and 2 and 3 hr incubation times in the egg extract, 5 μl aliquots were taken, wet mounts prepared, and phase contrast microscopy used to determine the percentage of sperm that were fully decondensed and recondensed, respectively, scoring 50 nuclei per slide. At the 5 and 15 min, and 2 and 3 hr time points, 25 μl aliquots of the reaction mix was removed and mixed with 75 μl PBS. Two 50 μl cytopreps were made for each aliquote as described by Brown et al., 1992. The dried cytopreps were fixed in one part acetic acid, and three parts cold methanol, and Giemsa stained for 1 hr followed by a 10 min wash in Giemsa buffer. Slides were examined using light microscopy and analyzed using Metamorph software. Autoradiography was performed using cytoprep slides as described by Brown et al. 1995.
The DNA synthesis was determined by autoradiography as previously described in Materials and Methods.

human sperm [2] = system: human sperm; remark: listed apart in the source
Method: (§2) Sperm were isolated from the seminal plasma as previously described in Brown et al., 1995. The sperm pellet was resuspended in phosphate buffered saline (PBS), pH=7.4, and divided into 4 aliquots. Each aliquot (equal sperm concentrations) was incubated at 37° C. in PBS with H2O2 concentrations of 0, 10, 50, and 100 μM for 15 min and 1 hr. All aliquots were divided into 2 portions. One portion was used to determine LPO. The remaining portion was centrifuged at 1500 g for 15 min. at room temperature, the sperm in the pellet resuspended and analyzed in the HSAA.
The HSAA was performed as described by Brown et al. 1995. Briefly, sperm are washed and permeabilized using lysolecithine.
as §1
Sperm chromatin decondensation and nuclear recondensation were evaluated in sperm exposed to increasing concentrations of H2O2 for 15 min and 1 hr using the HSAA. Sperm were analyzed at different incubation times in the egg extract using the image analysis Methamorph software system. The sperm nuclear activation was scored in 5 categories (FIG. 2): 1) full decondensation: sperm diameter 25-30 μm (FIG. 2C), 2) partial decondensation: sperm diameter <25 μm (FIG. 2B), 3) non-decondensed (FIG. 2A), 4) hyperdecondensed: sperm diameter >(25-30 μm) [FIGS. 2b and c], and 5) full recondensation (FIGS. 2D and E).

human sperm [3] = system: human sperm; remark: listed apart in the source
Method: as §2

[4] = 10 μM H2O2, 15 min and 1 hr exposures, 5 min incubation in egg extract
[5] = 10 μM H2O2, 15 min and 1 hr exposures, 15 min incubation in egg extract
[6] = 50 μM H2O2, 15 min exposure, 5 min incubation in egg extract
[7] = 50 μM H2O2, 15 min exposure, 15 min incubation in egg extract
[8] = 50 μM H2O2, 15 min exposure, 3 hr incubation in egg extract
[9] = 50 μM H2O2, 1 hr exposure, 5 min incubation in egg extract
[10] = 50 μM H2O2, 1 hr exposure, 15 min incubation in egg extract
[11] = 50 μM H2O2, 1 hr exposure, 2 hr incubation in egg extract
[12] = 50 μM H2O2, 1 hr exposure, 3 hr incubation in egg extract
[13] = 100 μM H2O2, 15 min exposure, 5 min incubation in egg extract
[14] = 100 μM H2O2, 15 min exposure, 15 min incubation in egg extract
[15] = 100 μM H2O2, 15 min exposure, 3 hr incubation in egg extract
[16] = 100 μM H2O2, 1 hr exposure, 5 min incubation in egg extract
[17] = 100 μM H2O2, 1 hr exposure, 15 min incubation in egg extract
[18] = 100 μM H2O2, 1 hr exposure, 2 hr incubation in egg extract
[19] = 100 μM H2O2, 1 hr exposure, 3 hr incubation in egg extract
[20] = 50 μM H2O2, 15 min exposure, 2 and 3 hr incubation in egg extract (combined)
[21] = 50 μM H2O2, 1 hr exposure, 2 and 3 hr incubation in egg extract (combined)
[22] = 100 μM H2O2, 15 min and 1 hr exposures, 5 min incubation in egg extract
[23] = 100 μM H2O2, 15 min exposure, 2 and 3 hr incubation in egg extract (combined)
[24] = 100 μM H2O2, 1 hr exposure, 2 and 3 hr incubation in egg extract (combined)

lipid peroxidation (MDA and hydroxyalkenals), means compared to the untreated control sperm (human sperm [3]; 10, 50 and 100 μM H2O2, 1 hr exposure): significantly different
lipid peroxidation (MDA and hydroxyalkenals), means compared to the untreated control sperm (human sperm [3]; 50 and 100 μM H2O2, 15 min exposure): significantly different
Structure (SMILES): OO [H2O2, hydrogen peroxide]
H2O2 concentration at which induction of DNA fragmentation was significant (sperm): 200 µM
3H-TTP incorporation (human sperm [1]; 10 μM H2O2, 15 min and 1 hr exposure, 2 and 3 hr incubations in frog egg extract): normal ^3H-TTP incorporation
sperm positive for 3H-TTP incorporation (human sperm [1]; [4]): No sperm were positive for ^3H-TTP incorporation; also recorded: no incorporation of ^3H-TTP
sperm positive for 3H-TTP incorporation (human sperm [1]; [5]): No sperm were positive for ^3H-TTP incorporation; also recorded: no incorporation of ^3H-TTP
sperm heavily labeled by 3H-TTP (human sperm [1]; 10 μM H2O2, 15 min and 1 hr exposures, 2 hr incubation in egg extract): 99±1%
sperm heavily labeled by 3H-TTP (human sperm [1]; 10 μM H2O2, 15 min and 1 hr exposures, 3 hr incubation in egg extract): 98±2%
sperm with medium 3H-TTP labeling (human sperm [1]; 50 μM H2O2, 15 min exposure (first of '50 and 100 μM for 15 min and 1 hr, respectively'), 2 hr incubation in egg extract): approximately 14.5±4%
sperm heavily labeled by 3H-TTP (human sperm [1]; [6]): 10±3.5%
sperm with medium 3H-TTP labeling (human sperm [1]; [6]): 18±3.5%
sperm heavily labeled by 3H-TTP (human sperm [1]; [7]): 10±2%
sperm with medium 3H-TTP labeling (human sperm [1]; [7]): approximately 20±3%
sperm heavily labeled by 3H-TTP (human sperm [1]; 50 μM H2O2, 15 min exposure, 2 hr incubation in egg extract): 85±5%
sperm heavily labeled by 3H-TTP (human sperm [1]; [8]): approximately 78±6%
sperm with medium 3H-TTP labeling (human sperm [1]; [8]): approximately 16.5±2%
sperm heavily labeled by 3H-TTP (human sperm [1]; [9]): 28±2%
sperm with medium 3H-TTP labeling (human sperm [1]; [9]): 36±3%
sperm heavily labeled by 3H-TTP (human sperm [1]; [10]): 17.5±7.5%
sperm with medium 3H-TTP labeling (human sperm [1]; [10]): Approximately 21±5%
sperm heavily labeled by 3H-TTP (human sperm [1]; [11]): 56.5±3%
sperm with medium 3H-TTP labeling (human sperm [1]; [11]): Approximately 36±2%
sperm heavily labeled by 3H-TTP (human sperm [1]; [12]): Approximately 75±3%
sperm with medium 3H-TTP labeling (human sperm [1]; [12]): Approximately 25±3%
sperm with medium 3H-TTP labeling (human sperm [1]; 100 μM H2O2 (second of '50 and 100 μM for 15 min and 1 hr, respectively'), 2 hr incubation in egg extract): ~43.5±5%
sperm heavily labeled by 3H-TTP (human sperm [1]; [13]): 15±5%
sperm with medium 3H-TTP labeling (human sperm [1]; [13]): Approximately 25±5%
sperm heavily labeled by 3H-TTP (human sperm [1]; [14]): 50±5%
sperm with medium 3H-TTP labeling (human sperm [1]; [14]): ~30±10%
sperm heavily labeled by 3H-TTP (human sperm [1]; 100 μM H2O2, 15 min exposure, 2 hr incubation in egg extract): Approximately 64±2%
sperm heavily labeled by 3H-TTP (human sperm [1]; [15]): ~85±5%
sperm with medium 3H-TTP labeling (human sperm [1]; [15]): ~14.5±3%
sperm heavily labeled by 3H-TTP (human sperm [1]; [16]): 31±3%
sperm with medium 3H-TTP labeling (human sperm [1]; [16]): ~48±2%
sperm heavily labeled by 3H-TTP (human sperm [1]; [17]): 45±9%
sperm with medium 3H-TTP labeling (human sperm [1]; [17]): ~37±9%
sperm heavily labeled by 3H-TTP (human sperm [1]; [18]): ~71±3%
sperm with medium 3H-TTP labeling (human sperm [1]; [18]): ~28.5±2.5%
sperm heavily labeled by 3H-TTP (human sperm [1]; [19]): ~60±4%
sperm with medium 3H-TTP labeling (human sperm [1]; [19]): ~40±4%
recondensed sperm (human sperm [2]; 10 μM H2O2, 15 min and 1 hr exposure, 2 and 3 hr incubation in egg extract (combined)): 98±2%
partially decondensed sperm (human sperm [2]; [4]): Approximately 30%
recondensed sperm (human sperm [2]; [4]): No recondensed sperm were observed
sperm showing no decondensation (human sperm [2]; [4]): 35-40%
fully decondensed sperm (human sperm [2]; [5]): Approximately 94%
fully decondensed sperm (human sperm [2]; 10 μM H2O2, 15 min exposure, 5 min incubation in egg extract): Approximately 28±4%
recondensed sperm (human sperm [2]; 10 μM H2O2, 15 min exposure, 15 min incubation in egg extract): No recondensed sperm were observed
fully decondensed sperm (human sperm [2]; 10 μM H2O2, 1 hr exposure, 5 min incubation in egg extract): ~30±6%
non-decondensed sperm (human sperm [2]; 10 μM H2O2, both time points (15 min and 1 hr exposure), 15 min incubation in egg extract): Approximately 5%
hyper-decondensed sperm (human sperm [2]; 10 μM H2O2, 2 and 3 hr incubation in egg extract (combined)): No sperm were hyper-decondensed
hyperdecondensed sperm (human sperm [2]; 10 μM H2O2, 5 min incubation in egg extract): No sperm were hyperdecondensed
hyperdecondensed sperm (human sperm [2]; 10 μM H2O2, 15 min incubation in egg extract): No sperm were hyperdecondensed
partially decondensed sperm (human sperm [2]; 50 μM H2O2, 15 min and 1 hr exposures, 5 min incubation in egg extract): Approximately 1%
hyper-decondensed sperm (human sperm [2]; [20]): 35.2%
recondensed sperm (human sperm [2]; [20]): 66±2.3%
fully decondensed sperm (human sperm [2]; [6]): 43.3±3.7%
hyperdecondensed sperm (human sperm [2]; [6]): 38.4%
non-decondensed sperm (human sperm [2]; [6]): 15±3%
recondensed sperm (human sperm [2]; [6]): No recondensed sperm were observed
fully decondensed sperm (human sperm [2]; [7]): 53±3%
hyperdecondensed sperm (human sperm [2]; [7]): 45.2%
recondensed sperm (human sperm [2]; [7]): No recondensed sperm were observed
hyper-decondensed sperm (human sperm [2]; [21]): 30±2%
recondensed sperm (human sperm [2]; [21]): 70±3%
fully decondensed sperm (human sperm [2]; [9]): 46.6±6%
hyperdecondensed sperm (human sperm [2]; [9]): 31±−4% and 31±4%
non-decondensed sperm (human sperm [2]; [9]): 18±4%
recondensed sperm (human sperm [2]; [9]): 5±3%
fully decondensed sperm (human sperm [2]; [10]): 58±2%
hyperdecondensed sperm (human sperm [2]; [10]): 30±2%
recondensed sperm (human sperm [2]; [10]): 10±2%
non-decondensed sperm (human sperm [2]; [22]): 10±2%
partially decondensed sperm (human sperm [2]; [22]): Approximately 1%
hyper-decondensed sperm (human sperm [2]; [23]): 45±2%
recondensed sperm (human sperm [2]; [23]): 57±2%
fully decondensed sperm (human sperm [2]; [13]): 56.6±4.7%
hyperdecondensed sperm (human sperm [2]; [13]): 26%
recondensed sperm (human sperm [2]; [13]): 8±2%
fully decondensed sperm (human sperm [2]; [14]): 48±1.5%
hyperdecondensed sperm (human sperm [2]; [14]): 37%
recondensed sperm (human sperm [2]; [14]): 15±3%
hyper-decondensed sperm (human sperm [2]; [24]): 45±3%
recondensed sperm (human sperm [2]; [24]): 54±2%
fully decondensed sperm (human sperm [2]; [16]): 64.5±4.5%
hyperdecondensed sperm (human sperm [2]; [16]): 11±4%
recondensed sperm (human sperm [2]; [16]): 15±2%
fully decondensed sperm (human sperm [2]; [17]): 47±2%
hyperdecondensed sperm (human sperm [2]; [17]): 33±3.5%
recondensed sperm (human sperm [2]; [17]): 20±2%
sperm nuclei with abnormal recondensation and nuclear arrest in the hyperdecondensed state (human sperm [2]; 50 and 100 μM H2O2, 3 hr incubation in egg extract): 33-42%
non-decondensed sperm (human sperm [2]; any other H2O2 concentrations (50, 100 μM) at any of the time points, 15 min incubation in egg extract): no sperm were non-decondensed
